The text below walks through data of BindingDB's records for doi:10.1016/j.bmcl.2005.03.049 (Abbott Laboratories, 2005).

As usually defined, the IC50 is the concentration needed to halve the response being measured.

This assay has as its target Protein farnesyltransferase subunit beta/geranylgeranyltransferase type-1 subunit alpha (Bos taurus, UniProt P29702+P49355). Description: FTase Activity Assay. As to conditions: pH 7.5; 37 °C. As to the method: The in vitro activity of compounds inhibiting FTase was determined by measuring the transfer of [3H]-FPP to substrate Ha-Ras-CVLS. The incorporated radioactivity was quantified by scintillation counting.

`Cn1cncc1C(O)(c1ccc(Cl)cc1)c1ccc2ccn(-c3cccc4ccccc34)c2c1` (configuration not stated) [(4-chlorophenyl)(1-methyl-1H-imidazol-5-yl)[1-(naphthalen-1-yl)-1H-indol-6-yl]methanol] displayed a half-inhibitory concentration (IC50) of 200 nM.

`Cn1cncc1C(O)(c1ccc(Cl)cc1)c1ccc2ccn(-c3cccc(Cl)c3)c2c1` (configuration not stated) [(4-chlorophenyl)[1-(3-chlorophenyl)-1H-indol-6-yl](1-methyl-1H-imidazol-5-yl)methanol] had an IC50 of 36 nM.
